Laboratory results from US7005271B1, “Method for the determination of the prethrombotic state” (priority 1994, dated 2006).

Assays:
U937 cells = assay: DNA analysis by flow cytometry of U937 cells after apoptosis induction; type: cell-based; conditions: 40 μM 7β hydroxycholesterol
Experimental: U937 cells are grown in a humidified 5% CO2 atmosphere at 37° C., using RPMI 1640 medium with Glutamax-I, supplemented with 10% heat-inactivated fetal calf serum, 1 mM sodium pyruvate, non-essential amino acids and gentamicin icin at 5 μg/mL Cells are usually plated at an initial conentration of 1.10^5/ml. Apoptosis induction is achieved by 40 μM 7β hydroxycholesterol- or 5 μg/ml actinomycin D-treatment of U937 cells at 37° C. during 8 to 24 hours. Cells have to be seeded at 3 to 4.10^5 cells per ml 6 h before treatment. Cell supernatant is obtained by centrifugation of treated cells at 500 g during 7 min and CaCl2 is added to a final concentration of 10 mM before addition of 200 μl/well of supernatant. For each experiment, a control without 7β hydroxycholesterol or actinomycin D has to be performed and culture medium containing 10% fetal calf serum should also be tested. It has to be emphasized that the content of microparticles of 10% fetal calf serum was low, probably due to removal of most of the cell fragments at sterilizing ultrafiltration. The amount of captured microparticles is determined using the prothrombinase assay.
The Prothrombinase Activity is Correlated with DNA Analysis by Flow Cytometry (Table 2)

[1] = Storage stability of biotinylated annexin V; type: physicochemical
Experimental: After 90 min at 25° C., the reaction is stopped by adding IM Lysine/HCl to a final concentration of 10 mM. The biotinylated annexin V is finally dialysed overnight at 4° C. against Storage buffer.

| Compound | % of hypodiploid DNA (U937 cells; 0 h treatment) [%] | % of hypodiploid DNA (U937 cells; 8 h treatment) [%] | % of hypodiploid DNA (U937 cells; 10 h treatment) [%] | % of hypodiploid DNA (U937 cells; 12 h treatment) [%] | % of hypodiploid DNA (U937 cells; 20 h treatment) [%] | % of hypodiploid DNA (U937 cells; 22 h treatment) [%] | storage stability ([1]; stored below 0° C.) | storage stability (anti-phospholipid potential) ([1]; stored for months at −80° C.) |
| --- | --- | --- | --- | --- | --- | --- | --- | --- |
| CC(C)CCC[C@@H](C)[C@H]1CC[C@H]2[C@@H]3[C@@H](O)C=C4C[C@@H](O)CC[C@]4(C)[C@H]3CC[C@]12C [7β-hydroxycholesterol] | 2.75 | 9.43 | 12.58 | 18.31 | 35.03 | 41.54 | – | – |
| annexin-V^Bi: Human placenta annexin V biotinylated with biotin-X-OSu, insolubilized onto streptavidin-coated plates as capture receptor | – | – | – | – | – | – | stable for weeks | without detectable loss of anti-phospholipid potential |
